# Reference: patent US6444617B1, “Fused-heterocycle dicarboxylic acid diamide derivatives or salts thereof, herbicide and usage thereof” (Nihon Nohyaku Co., Ltd., priority 1998, dated 2002)
# What was measured:
# Assay type in all cases: in vivo
# [1] = test system: bulrush (Scirpus juncoides Roxb.); test: Test Example 1: herbicidal effect on paddy field weeds before emergence; settings: Dosage 5 kg/ha
# In short: (§1)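 Soil in pots is brought to paddy state and seeded with barnyard grass and bulrush; before germination, the soil receives a predetermined dosage of test compound in solution. After twenty-one days, control rate relative to untreated pots is calculated and graded.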
# [2] = test system: barnyard grass (Echinochloa crus-galli Beauv.); test: as above; settings: Dosage 5 kg/ha
# In short: as §1
# wheat (Wh) = test: Test Example 3: phytotoxicity to upland crop plants, treatment before emergence; settings: dosage 5 kg/ha
# In short: (§2)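 Pre-emergence spray of a liquid preparation at a prescribed compound concentration. Soybean and wheat injury was scored against a phytotoxicity criterion 14 days after treatment, alongside weed control.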
# soybean plant (So) = test: as above; settings: dosage 5 kg/ha
# In short: as §2
# soybean plant = test: Test Example 4: phytotoxicity to upland crop plants, treatment after emergence; settings: dosage 5 kg/ha, sprayed after emergence, judged 14 days after treatment
# In short: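 Weeds, soybean and wheat were sown in soil-filled vats, covered with soil and grown to set leaf stages before a post-emergence spray of an agent containing the compound at a prescribed concentration. Weed-killing rate and crop phytotoxicity were assessed 14 days after treatment.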
# wheat = test: as above; settings: dosage 5 kg/ha, sprayed after emergence, judged 14 days after treatment
# In short: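 Upland weeds and crop plants (soybean, wheat) are grown from seed in soil until they reach given leaf stages, then treated by spraying with the compound-containing agent; effects are judged two weeks later.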
# [3] = test system: barnyard grass (Echinochloa crus-galli Beauv.), Ec; test: Test Example 4: herbicidal effect on upland weeds after emergence; settings: dosage 5 kg/ha; sprayed after emergence; judged 14 days after treatment
# In short: (§3)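 Weeds and soybean grown in soil-filled vats to set leaf stages, then sprayed post-emergence with the compound at a prescribed concentration. Weed-killing rate and crop phytotoxicity judged 14 days after treatment.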
# [4] = test system: cocklebur (Xanthium strumarium L.), Xs; test: as above; settings: dosage 5 kg/ha; sprayed after emergence; judged 14 days after treatment
# In short: as §3
# [5] = test system: cleavers (Galium aparine L.), Ga; test: as above; settings: dosage 5 kg/ha; sprayed after emergence; judged 14 days after treatment
# In short: as §3
# [6] = test system: bird's eye speedwell (Veronica persica Poir.), Vp; test: as above; settings: dosage 5 kg/ha; sprayed after emergence; judged 14 days after treatment
# In short: as §3
# [7] = test system: forxtail grass (Alopecurus aequalis var. amurensis Ohwi), Am; test: as above; settings: dosage 5 kg/ha; sprayed after emergence; judged 14 days after treatment
# In short: as §3
# [8] = test system: velvetleaf (Abutilon theophtasti L.), At; test: as above; settings: dosage 5 kg/ha; sprayed after emergence; judged 14 days after treatment
# In short: as §3
# [9] = test system: bulrush (Scirpus juncoides Roxb.); test: Test Example 2: herbicidal effect on paddy field weeds after emergence; settings: Dosage 5 kg/ha; one-leaved stage; 21 days after treatment
# In short: (§4)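 Weeds in flooded paddy-soil pots were grown to the one-leaved stage, then the soil was treated with the compound solution at a set dosage.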
# [10] = test system: monochoria (Monochoria vaginalis Presl); test: as above; settings: Dosage 5 kg/ha; one-leaved stage; 21 days after treatment
# In short: as §4
# [11] = test system: barnyard grass (Echinochloa crus-galli Beauv.); test: as above; settings: Dosage 5 kg/ha; one-leaved stage; 21 days after treatment
# In short: as §4
# [12] = test system: barnyard grass (Echinochloa crus-galli Beauv.), Ec; test: Test Example 3: herbicidal effect on upland weeds before emergence; settings: dosage 5 kg/ha
# In short: (§5)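 Herbicidal activity was rated from kill rate determined 14 days post-spray, the compound having been applied pre-emergence as a liquid agent.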
# [13] = test system: cocklebur (Xanthium strumarium L.), Xs; test: as above; settings: dosage 5 kg/ha
# In short: as §5
# [14] = test system: cleavers (Galium aparine L.), Ga; test: as above; settings: dosage 5 kg/ha
# In short: as §5
# [15] = test system: bird's eye speedwell (Veronica persica Poir.), Vp; test: as above; settings: dosage 5 kg/ha
# In short: as §5
# [16] = test system: forxtail grass (Alopecurus aequalis var. amurensis Ohwi), Am; test: as above; settings: foxtail grass, dosage 5 kg/ha
# In short: as §5
# [17] = test system: velvetleaf (Abutilon theophtasti L.), At; test: as above; settings: dosage 5 kg/ha
# In short: as §5
Compound,Pre-emergence treatment Bulrush (herbicidal effect) [1],Pre-emergence treatment Barnyard grass (herbicidal effect) [2],Phytotoxicity Wh (wheat (Wh)),Phytotoxicity So (soybean plant (So)),Phytotoxicity So (soybean plant),Phytotoxicity Wh (wheat),Herbicidal effect Ec [3],Herbicidal effect Xs [4],Herbicidal effect Ga [5],Herbicidal effect Vp [6],Herbicidal effect Am [7],Herbicidal effect At [8],Post-emergence treatment Bulrush (herbicidal effect) [9],Post-emergence treatment Monochoria (herbicidal effect) [10],Post-emergence treatment Barnyard grass (herbicidal effect) [11],Herbicidal effect Ec [12],Herbicidal effect Xs [13],Herbicidal effect Ga [14],Herbicidal effect Vp [15],Herbicidal effect Am [16],further results
CCCNC(=O)c1nc2ccn(C)c2cc1C(=O)Nc1c(CC)ccc(Cl)c1CC [compound 907],5 (Weed-killing rate is 100%.),5 (Weed-killing rate is 100%.),5 (Crop-killing rate is 100%.),4 (Crop-killing rate is 90-99%.),4 (Crop-killing rate is 90-99%.),5 (Crop-killing rate is 100%.),5 (Weed-killing rate is 100%.),5 (Weed-killing rate is 100%.),5 (Weed-killing rate is 100%.),5 (Weed-killing rate is 100%.),5 (Weed-killing rate is 100%.),5 (Weed-killing rate is 100%.),5 (Weed-killing rate is 100%.),5 (Weed-killing rate is 100%.),5 (Weed-killing rate is 100%.),5 (Weed-killing rate is 100%.),5 (Weed-killing rate is 100%.),5 (Weed-killing rate is 100%.),5 (Weed-killing rate is 100%.),5 (Weed-killing rate is 100%.),Herbicidal effect At [17]: 5 (Weed-killing rate is 100%.)
CCCNC(=O)c1nc2c(cc1C(=O)Nc1c(CC)ccc(Cl)c1CC)CCO2 [compound 919],5 (Weed-killing rate is 100%.),5 (Weed-killing rate is 100%.),5 (Crop-killing rate is 100%.),5 (Crop-killing rate is 100%.),5 (Crop-killing rate is 100%.),5 (Crop-killing rate is 100%.),5 (Weed-killing rate is 100%.),5 (Weed-killing rate is 100%.),5 (Weed-killing rate is 100%.),5 (Weed-killing rate is 100%.),5 (Weed-killing rate is 100%.),5 (Weed-killing rate is 100%.),5 (Weed-killing rate is 100%.),5 (Weed-killing rate is 100%.),5 (Weed-killing rate is 100%.),5 (Weed-killing rate is 100%.),5 (Weed-killing rate is 100%.),5 (Weed-killing rate is 100%.),5 (Weed-killing rate is 100%.),5 (Weed-killing rate is 100%.),Herbicidal effect At [17]: 5 (Weed-killing rate is 100%.)
CCCNC(=O)c1nc2onc(C)c2cc1C(=O)Nc1c(CC)ccc(Cl)c1CC [compound 1064],5 (Weed-killing rate is 100%.),5 (Weed-killing rate is 100%.),5 (Crop-killing rate is 100%.),4 (Crop-killing rate is 90-99%.),4 (Crop-killing rate is 90-99%.),5 (Crop-killing rate is 100%.),5 (Weed-killing rate is 100%.),5 (Weed-killing rate is 100%.),5 (Weed-killing rate is 100%.),5 (Weed-killing rate is 100%.),5 (Weed-killing rate is 100%.),5 (Weed-killing rate is 100%.),5 (Weed-killing rate is 100%.),5 (Weed-killing rate is 100%.),5 (Weed-killing rate is 100%.),5 (Weed-killing rate is 100%.),5 (Weed-killing rate is 100%.),5 (Weed-killing rate is 100%.),5 (Weed-killing rate is 100%.),5 (Weed-killing rate is 100%.),Herbicidal effect At [17]: 5 (Weed-killing rate is 100%.)
Cc1c(Cl)cccc1NC(=O)c1cc2c(C)noc2nc1C(=O)NC1CCCC1 [compound 1085],5 (Weed-killing rate is 100%.),5 (Weed-killing rate is 100%.),5 (Crop-killing rate is 100%.),4 (Crop-killing rate is 90-99%.),4 (Crop-killing rate is 90-99%.),5 (Crop-killing rate is 100%.),5 (Weed-killing rate is 100%.),5 (Weed-killing rate is 100%.),4 (Weed-killing rate is 90-99%.),5 (Weed-killing rate is 100%.),5 (Weed-killing rate is 100%.),5 (Weed-killing rate is 100%.),5 (Weed-killing rate is 100%.),5 (Weed-killing rate is 100%.),5 (Weed-killing rate is 100%.),5 (Weed-killing rate is 100%.),5 (Weed-killing rate is 100%.),5 (Weed-killing rate is 100%.),5 (Weed-killing rate is 100%.),5 (Weed-killing rate is 100%.),Herbicidal effect At [17]: 5 (Weed-killing rate is 100%.)
CCNC(=O)c1nc2c(cnn2C)cc1C(=O)Nc1c(CC)ccc(Cl)c1CC [compound 1087],5 (Weed-killing rate is 100%.),5 (Weed-killing rate is 100%.),5 (Crop-killing rate is 100%.),5 (Crop-killing rate is 100%.),4 (Crop-killing rate is 90-99%.),5 (Crop-killing rate is 100%.),5 (Weed-killing rate is 100%.),5 (Weed-killing rate is 100%.),5 (Weed-killing rate is 100%.),5 (Weed-killing rate is 100%.),5 (Weed-killing rate is 100%.),5 (Weed-killing rate is 100%.),5 (Weed-killing rate is 100%.),5 (Weed-killing rate is 100%.),5 (Weed-killing rate is 100%.),5 (Weed-killing rate is 100%.),5 (Weed-killing rate is 100%.),5 (Weed-killing rate is 100%.),5 (Weed-killing rate is 100%.),5 (Weed-killing rate is 100%.),Herbicidal effect At [17]: 5 (Weed-killing rate is 100%.)
